Entries after “also recorded” stand apart in the source; their conditions may differ.
Tests used:
α-synuclein = target: T1, α-synuclein (Homo sapiens, UniProt P37840); assay: Tyrosine fluorescence assay of metal binding to α-synuclein; settings: magnesium co-incubated with iron
T1 construct: His-6 (cleaved yes); made in house; host or cells: bacteria (IPTG-induced; Pro-Ex His 6 vector)
Procedure: Because iron binds to other proteins that form aggregates and iron is known to accumulate in Parkinson's disease, iron might bind directly to α-synuclein. To confirm this hypothesis, the interaction of iron with α-synuclein was tested using tyrosine fluorescence as an indicator of iron binding. […] Fluorescence of tyrosine has been used to monitor binding of metals to β-amyloid [Garzon-Rodriguez W. et al., Bioorg. Med. Chem. Let., 9:2243-2248 (1999), which is hereby incorporated by reference]. A similar approach was taken to analyze binding of iron to α-synuclein. Tyrosine has a fluorescence emission spectrum that has a peak emission of 310 nm when excited at 280 nm, respectively (FIG. 2A). It was observed that binding of iron reduced the fluorescence of the tyrosines in α-synuclein. […] The Hill coefficient was 1.0 (R^2=1.0, P<0.0001), indicating one binding site for iron with no cooperativity (FIGS. 2A & B). α-Synuclein was also tested for binding to other metals, including CuCl2, ZnCl2 and MgCl2. Because the C-terminus of α-synuclein has a region with 7 glutamates and 4 aspartates, which together could chelate iron, we created a deletion construct lacking the last 27 amino acids on α-synuclein and analyzed binding of this construct.
To monitor the binding profiles of Fe(II) and Mg(II) to α-synuclein in vitro we used changes of tyrosine fluorescence. Tyrosine fluorescence is used as an indicator of changes in protein conformation or binding of metals. Excitation of tyrosine at 280 nm elicits fluorescence that peaks at 310 nm for monomeric tyrosine, and at 350-400 nm for tyrosinate or dimeric tyrosine. The fluorescence spectrum of α-synuclein yielded fluorescence peaks at 310 and 400 nm. The peak at 400 nm cannot be explained by the presence of dimeric tyrosine, due to dimerization of α-synuclein, because dimerization of α-synuclein decreases the fluorescence at 400 nm, and tends to eliminate the peak at 400 nm.

A53T α-synuclein [1] = target: T2, A53T α-synuclein (Homo sapiens, UniProt P37840, A53T); assay: Tyrosine fluorescence assay of metal binding to A53T α-synuclein
T2 construct: His-6 (cleaved yes); made in house; host or cells: bacteria (IPTG-induced; Pro-Ex His 6 vector)
From the text: We also examined how the A53T mutation in human α-synuclein affected binding of iron and magnesium. […] Previous studies have shown that A53T mutation changes the conformation of α-synuclein by increasing its helical content (Polymeropoulos et al., Science, 276:2045-7(1997)). These conformational changes might also reduce binding of magnesium to α-synuclein.

[2] = target: T3, wildtype recombinant α-synuclein (Homo sapiens, UniProt P37840); assay: Aggregation of recombinant wildtype α-synuclein (immunoblot, video densitometry, thioflavine-S); format: biochemical
T3 construct: His-6 (cleaved yes); made in house; host or cells: bacteria (IPTG-induced; Pro-Ex His 6 vector)
Procedure: Knowing that magnesium and iron induce opposing changes in α-synuclein tyrosine fluorescence, it is believed that binding of magnesium might convert α-synuclein to a conformation that resists aggregation perhaps by preventing β-pleated sheet formation. To test this, wildtype recombinant α-synuclein was incubated with 0-3 mM FeCl2 and 0 or 100 μM MgCl2 for 24 hrs at 37° C., then immunoblotting was performed for α-synuclein and quantified aggregation by video densitometry.

A53T α-synuclein [3] = target: T2, A53T α-synuclein; assay: Iron-induced aggregation of recombinant A53T α-synuclein (immunoblot, video densitometry); format: biochemical; settings: 0-3 mM FeCl2, 100 μM MgCl2, 24 hrs
Procedure: We incubated recombinant A53T α-synuclein with 0-3 mM FeCl2 and 0 or 100 μM MgCl2 for 24 hrs, then immunoblotted the α-synuclein and quantified aggregation by video densitometry.

primary cortical neurons [4] = assay: α-Synuclein aggregation in primary cortical neurons (immunoblot, video densitometry); format: cell-based, rat
Procedure: Immunoblotting: Cells were harvested with SDS lysis solution (2% SDS, 10 mM Tris, pH 7.4, 2 mM β-glycerol phosphate, 1 μM AEBSF). The amount of protein was determined using the BCA assay (Pierce), […] per lane was run on 14% SDS polyacrylamide gels and transferred to nitrocellulose (200 mAmp, 12 hrs). The nitrocellulose was then incubated 1 hr in 5% milk/PBS, washed, incubated overnight in 1° antibody, washed, then incubated 3 hrs in peroxidase coupled 2° antibody and developed with chemiluminescent reagent (NEN).
(§1) To test this, the inventors examined the ability of magnesium to inhibit α-synuclein aggregation in primary cortical neurons grown in cell culture. Primary cortical neurons were treated with 1 mM FeCl2 plus 0-1.5 mM MgCl2 for 3 days, the α-synuclein was immunublotted and the amount of aggregate determined by video densitometry. […] Doses as low as 0.5 mM of magnesium produced statistically significant reduction in formation of α-synuclein positive aggregates.

primary cortical neurons [5] = assay: Ubiquitin-positive α-synuclein aggregates in primary cortical neurons (immunoprecipitation, anti-ubiquitin immunoblot); format: cell-based, rat; settings: 0.3 mM iron and 50 μM dopamine, 3 days
Procedure: The inventors also examined the amount of aggregates present using an antibody to ubiquitin. As set forth previously, the accumulation of high molecular weight ubiquitin adducts correlates with the formation of α-synuclein aggregates. Primary cortical neurons were treated as described above and the aggregates were immunoprecipitated with anti-α-synuclein antibody and immunoblotted with anti-ubiquitin antibody. An increase in ubiquitination of α-synuclein upon treatment with 0.3 mM iron and 50 μM dopamine for 3 days was observed. However, treating the cells with magnesium produced a statistically significant decrease in ubiquitin immunoreactivity with doses as low as 0.5 mM (n=3, P<0.0001). Thus, magnesium inhibits formation of ubiquitin positive α-synuclein aggregates in primary neurons.

[6] = tested on: BE-M17 neuroblastoma cells over-expressing wild type α-synuclein; assay: α-Synuclein aggregation and inclusions in BE-M17 cells over-expressing wild type α-synuclein; format: cell-based, human; settings: 1 mM FeCl2 plus 50 μM dopamine plus 1 mM MgCl2, 3 days
Procedure: Immunohistochemistry: For light microscopy, cells are fixed with 4% paraformaldehyde, washed, permeabilized by incubation for 30 min with 0.2% Triton-X 100, blocked with 5% dry milk/1 % goat serum/PBS, washed and then incubated overnight in 1° antibody (1:500). Development is with an ABC kit and 3′, 3′-diaminobenzidine as per manufacturer's directions (Vector, Burlingame, Calif.).
as §1
Next, whether magnesium also prevents formation of α-synuclein-positive inclusions in BE-M17 neurons stably over-expressing wildtype α-synuclein was investigated. The neurons were treated with 1 mM FeCl2 plus 50 μM dopamine plus 0 or 1 mM MgCl2 for 3 days, and then examined by immunocytochemistry using anti-α-synuclein and anti-ubiquitin antibodies.

[7] = tested on: BE-M17 cells expressing the human A53T α-synuclein cDNA; assay: Aggregate formation in BE-M17 cells expressing A53T α-synuclein; format: cell-based
[8] = tested on: primary cultures of cortical neurons; assay: Neuronal process length and inclusions in primary cultures of cortical neurons; format: cell-based, rat; settings: 0.3 mM FeCl2 plus 50 μM dopamine plus 1-2 mM magnesium, 3 days
Procedure: How magnesium affected neurons from the central nervous system was also examined. Primary cultures of cortical neurons were treated with 0.3 mM FeCl2 plus 50 μM dopamine plus 0-2 mM MgCl2 for 3 days (a relatively low dose of iron was used to enable quantitation of neuronal processes). To quantify the amount of neuroprotection provided by magnesium, the percent of processes longer than 100 μm as a characteristic of cell viability was determined. […] Inclusions also formed in these neurons.

[9] = tested on: BE-M17 neuroblastoma cells; assay: Neuroprotection against FeCl2 plus dopamine, MTT assay; settings: 0.8 mM MgCl2, 2 days
Procedure: MTT and LDH toxicity assay: Cells were plated in 96 well dishes at 5000 cells/well in 100 μl growth medium. For the MTT assay, viability following 48 hrs of pharmacological treatment was analyzed by adding 0.5 mg/ml MTT (MTT, 3-[4,5-dimethylthiazol-2-yl]-2,5-diphenyltetrazolium bromide) and incubating at 37° C. for 3 hrs. Lysis buffer (100 μl of 20% SDS in 50% N, N-dimethylformamide) was then added and the plates are read at 540 nm after 24 hrs. For the lactate dehydrogenase (LDH) assay, viability following 24 hrs of pharmacological treatment was analyzed using MTS reagent and the Cytox 96 kit (Promega) according to manufacturer's directions.

## [Cl-].[Cl-].[Mg+2] [magnesium, MgCl2]
α-synuclein
  effect of co-incubation on iron-induced quenching of tyrosine fluorescence: did not prevent iron-induced quenching
A53T α-synuclein [1]
  effect of A53T mutation on binding to α-synuclein: abolish the interaction
[2]; 0-3 mM FeCl2, 100 μM (0.1 mM) MgCl2, 24 hrs, 37° C.
  iron-induced formation of high molecular weight aggregates of α-synuclein: striking reduction in formation of high molecular weight aggregates; also recorded: inhibits iron-induced aggregation
[2]; separate experiments, no iron
  spontaneous aggregation of α-synuclein: inhibited spontaneous aggregation
[2]; stated as MgSO4 clinical range
  magnesium required to inhibit α-synuclein aggregation in vitro: 0.5 to 2 mM
A53T α-synuclein [3]
  iron-induced aggregation of A53T α-synuclein: unable to inhibit iron-induced aggregation
Primary cortical neurons [4]; 1 mM FeCl2, 3 days
  lowest dose producing statistically significant reduction of α-synuclein positive aggregates: 0.5 mM
Primary cortical neurons [4]; 1 mM FeCl2, magnesium 0.2 to 1.5 mM, 3 days
  formation of high molecular weight α-synuclein aggregates: dose-dependent reduction
Primary cortical neurons [5]
  lowest dose producing statistically significant decrease in ubiquitin immunoreactivity: 0.5 mM
[6]
  α-synuclein-positive inclusions (immunocytochemistry): little accumulation of α-synuclein-positive inclusions
[7]
  aggregate formation: unable to inhibit aggregate formation
[8]
  formation of α-synuclein-positive inclusions: did not exhibit any formation of α-synuclein-positive inclusions
  loss of neuronal processes over 100 μm: 20%
[9]; control (vector) cell line
  increase in cell survival versus Fe2+/dopamine alone: 1.3 fold
[9]; wildtype α-synuclein cell line
  increase in cell survival versus Fe2+/dopamine alone: 2.4 fold

— US6780971B2, “Compositions for inhibiting the aggregation pathway of α-synuclein” (Panacea Pharmaceuticals, Inc., priority 2000, dated 2004)
